From US20160228056A1, “DYNAMIC POSITRON EMISSION TOMOGRAPHY IMAGING” (THE GENERAL HOSPITAL CORPORATION, priority 2013, published 2016)
“Also recorded” adds a separate entry of the source.

Columns and labels:
[1] = cited from earlier work; for K1 (rate constant, transport from blood to brain) / k2 (rate constant, transport back from brain to blood) / k3 (rate constant, phosphorylation in the brain tissue): two-tissue compartment model (Reivich et al., 1985)
glucose utilization = assay: fPET-FDG constant infusion with checkerboard visual stimulation; assay type: in vivo, human; details: for mean percent increase in glucose utilization derived from fPET-FDG: fixed-effect group analysis, three subjects
Description: To interrogate dynamic metabolic information, a 90-minute constant FDG infusion paradigm was used (0.01 ml/s, 5 mCi total calculated to the beginning of infusion), during which we periodically presented a conventional visual stimulus consisting of an 8-Hz counterphase flickering “checkerboard” pattern as shown in FIG. 2A. The stimulus was projected on a screen mounted at the end of the magnet bore, and subjects (n=3) viewed the stimulus through a mirror. We used three different stimuli: two full-field checkerboard stimulus periods for a duration of 10 minutes each, and two hemi-field checkerboard stimulus periods (right and left) for a duration of 5 minutes each (FIG. 2A). This design allowed us to confirm that the observed metabolic signal changes were specific to the stimuli, and also that multiple stimuli (four in this case) can be measured dynamically during a single scan of a single subject. In addition to our dynamic analysis, the fPET-FDG data were also binned into 90 one-minute frames using previously published methods (see, Catana et al., J Nucl Med 51, 1431, September, 2010; and Catana et al., J Nucl Med 52, 154, January 2011). During the fPET-FDG scan, functional MR data were simultaneously collected using a Siemens BrainPET scanner. BOLD data were collected prior to and during the first 10 minute full-field checkerboard and the two hemi-field checkerboard stimuli; and ASL data were collected prior to and during the second 10 minute full-field checkerboard stimulus.
FDG was delivered at a constant rate during our fPET studies. At steady state, the rate of FDG utilization in a given voxel is proportional to the slope of the radioactivity accumulated in that voxel. As shown in Example 1 below, during steady state the slope of the voxelwise FDG uptake from fPET can be represented as: slope=(CMRglu*LC*Cp)/Ca^o where LC is the lumped constant which converts FDG metabolic rate to glucose metabolic rate, Ca^o is a measurement of plasma glucose (see, Reivich et al., Circ Res 44, 127, January 1979; and Phelps et al., Ann Neurol 6, 371, November 1979), and Cp is the plasma radioactivity concentration (which is controlled through constant infusion). The slope is an approximation for (K1k3)/(k2+k3) scaled by Cp and is thus analogous to Ki (the influx rate constant) determined by a linear approximation of a bolus FDG injection by Patlak analysis (see, Patlak et al., J Cereb Blood Flow Metab 3, 1, Mar. 1983; and Lucignani et al., J Nucl Med 34, 360, March 1993). Changes in slope are thus proportional to changes in CMRglu. By taking the derivative of the fPET-FDG uptake time course estimated using pairwise subtraction of the 90 one minute frames to form a relative index of uptake rate, we generated a time series akin to a BOLD fMRI signal to represent change in CMRglu. We then used fMRI software, FSL's (FMRIB Software Library) FEAT (see Jenkinson et al., Neuroimage 62, 782, Aug. 15, 2012) to process the fPET-FDG data using a generalized linear model (GLM) with 3 different explanatory variables (EV): (i) 2 blocks of the 10 minutes full-field checkerboard paradigm (EV1), (ii) a 5 minute block of left hemi-field checkerboard (EV2) and (iii) a 5 minute block of right hemi-field checkerboard (EV3). Confirmation of functional specificity is inherent in our analyses given that both hemispheres of the visual system respond equally to the full-field checkerboard whereas the contralateral hemisphere has a higher response to a hemi-field checkerboard. […]

[2] = blood radioactivity during the FDG infusion protocol; assay type: in vivo, human; details: constant infusion
Description: FDG was administered in saline intravenously at a constant infusion rate of 0.01 ml/s for 90 minutes to healthy subjects (1 female/2 males, mean age 32±2) using a Medrad® Spectra Solaris syringe pump. In a separate experiment, FDG was administered as a traditional bolus injection (5 mCi administered in 5 mL saline over ˜30 seconds) during rest for 3 additional healthy subjects (1 female/2 males, mean age 29±3). Venous blood samples were collected in all subjects during scanning, then centrifuged to obtain plasma, and aliquoted in a gamma counter that had been precalibrated to the PET scanner to measure the venous activity during the experiment. The fPET-FDG data were binned into 90 one-minute frames. The reconstructed volume was down-sampled to 76 slices with 128×128 voxels (2.5×2.5×2.5 mm^3) with one minute time frames. For bolus FDG comparison studies, data were processed as a single frame (40-70 minutes post injection) and analogously down-sampled. Standardized Uptake Values (SUVs) were normalized to gray matter uptake for each subject.
FDG in saline solution was administered intravenously at a constant infusion rate of 0.01 ml/s for 90 min to healthy subjects (1 female/2 males, mean age 32±2 years) using a Medrad® Spectra Solaris syringe pump (initial activity=5±0.6 mCi). […]

cerebral blood flow = assay: non-human primate hypercapnia experiment with fPET-FDG and ASL CBF; assay type: in vivo, baboon
From the text: To assess the influence of cerebral blood flow changes on FDG signal we administered inhaled carbon dioxide, a strong vasodilatory stimulus, to two baboons (2 females, ˜10-12 kg) simultaneously with fPET-FDG and arterial spin labeling (ASL) MRI for CBF measurements. The protocol was approved by the Institutional Animal Care and Use Committee. Animals were anesthetized with isoflurane (1%) and mechanically ventilated. Physiological parameters were continuously monitored and maintained within the normal range. All images were acquired on the same 3T Siemens TIM-Trio with a BrainPET insert as the human data, using a custom PET-compatible 8-channel array coil. Similar to the human protocol, ˜5 mCi of FDG was continuously infused intravenously at a rate of 0.01 mL/sec for each study. PET data were stored in list mode and binned into 1-minute frames. Dual echo pseudo-continuous arterial spin labeling (pCASL) data were acquired simultaneously (TR/TE1/TE2=4000/12/30 ms, 2.2×2.2×4 mm) (Wey et al., 2010). During a 50 minute dynamic fPET/fMRI scan, a hypercapnic challenge (7% CO2) was given for 10 minutes between 30 and 40 minutes. All data were motion and slice-time corrected, skull stripped, spatially smoothed and registered to a standard NHP atlas. Percent changes in gray matter CBF were calculated.

[3] = 10 minute full checkerboard, average of 3 subjects, exponential fit

OCC1OC(O)CC(O)C1O (centres unmarked) [deoxyglucose]
K1 (rate constant, transport from blood to brain) [1]: ~0.1 mL/min | k2 (rate constant, transport back from brain to blood) [1]: ~0.15 min⁻¹ | k3 (rate constant, phosphorylation in the brain tissue) [1]: ~0.08 min⁻¹

2-[^18F]-fluoro-2-deoxyglucose [FDG]
tau of the exponential decrease in FDG signal after the end of the activation (glucose utilization; [3]): 5.6 min | tau of the exponential increase in FDG signal after the beginning of the activation (glucose utilization; [3]): 4.9 min | mean percent increase in glucose utilization derived from fPET-FDG (glucose utilization; full-field checkerboard vs baseline): 25% | mean percent increase in glucose utilization derived from fPET-FDG (glucose utilization; left hemi-field checkerboard vs baseline): 26% | mean percent increase in glucose utilization derived from fPET-FDG (glucose utilization; right hemi-field checkerboard vs baseline): 28% | blood radioactivity during the infusion protocol, maximum ([2]; venous plasma blood): 4 kBq/cc | blood radioactivity during the infusion protocol, average ([2]; whole blood): 4 kBq/cc | extraction fraction ([1]; brain): 4% | K1 (rate constant, transport from blood to brain) [1]: 0.1 mL/min | k2 (rate constant, transport back from brain to blood) [1]: 0.15 min⁻¹ | k3 (rate constant, phosphorylation in the brain tissue) [1]: 0.08 min⁻¹

O=C=O [carbon dioxide]
CBF increase on average (cerebral blood flow; gray matter, ASL, 10 minutes of hypercapnia (7% CO2), anesthetized baboon): 70% | effect on FDG uptake rate / FDG signal slope (cerebral blood flow; hypercapnia (7% CO2) between 30 and 40 minutes of 50 minute FDG infusion, baboon): did not alter FDG uptake rate; also recorded: did not induce any measurable change | CBF change at maximum (cerebral blood flow; hypercapnia stimulus (7% CO2), baboon): 120%
